Test results reported in PMC12133982, “Predominant T-cell epitopes of SARS-CoV-2 restricted by multiple prevalent HLA-B and HLA-C allotypes in Northeast Asia” (Frontiers in Immunology, 2025).
Read-outs that look alike come from different tables or passages of the source. Peptide text beside a SMILES is read from it.

How the values were obtained:
HLA-C0102 = HLA-C0102 (Homo sapiens, UniProt P10321, A176E/A330V/A35S/A97T/C350S/D114A/D33F/L171W/L180R/L218V/M285V/M309V/M331V/P208H/Q277E/Q291P/R121W/R243W/R30K/S123C/S140Y/S297R/T329A/T363A/V272M/V319A); test: Competitive peptide binding assay, CIR-C0102; settings: for inhibition at 5 µM / inhibition at 15 µM: read-out: Inhibition % of Cy5-reference peptide binding
Protocol: (§1) Then, competitive peptide binding assays were performed.

HLA-C0702 = HLA-C0702 (Homo sapiens, UniProt P10321); test: Competitive peptide binding assay, CIR-C0702
HLA-C0302 = HLA-C0302 (Homo sapiens, UniProt P10321, A176E/A330V/A97T/C25G/C350S/D114A/D33Y/E197K/L127V/L171W/L218V/M285V/M309V/M331V/P208H/Q277E/Q291P/R243W/R45H/S123Y/S297R/S48A/T118I/T187L/T329A/T363A/V319A); test: Competitive peptide binding assay, CIR-C0302; settings: HMy2.CIR-C0302 cells, reference Cy5-[…], class from inhibition at 5 and 15 μM, flow cytometry MFI; read-out: Binding affinity with HLA-C0302
Protocol: as §1

HLA-C0602 = HLA-C0602 (Homo sapiens, UniProt P10321, A176E/A330V/C350S/L171W/L180W/L218V/M285V/M309V/M331V/N104K/P208H/Q277E/Q291P/R121W/S101N/S123Y/S297R/T329A/T363A/V319A/V328M); test: Competitive peptide binding assay, CIR-C0602
HLA-C0304 = HLA-C0304 (Homo sapiens, UniProt P10321, A176E/A330V/A97T/C25G/C350S/D114A/D33Y/E197K/L119I/L127V/L171W/L218V/M285V/M309V/M331V/P208H/Q277E/Q291P/R243W/R45H/S123Y/S140Y/S297R/S48A/T118I/T187L/T329A/T363A/V319A); test: Competitive peptide binding assay, CIR-C0304; settings: HMy2.CIR-C0304 cells, reference Cy5-[…], class from inhibition at 5 and 15 μM, flow cytometry MFI; read-out: Binding affinity with HLA-C0304
Protocol: as §1

HLA-C0401 = HLA-C0401 (Homo sapiens, UniProt P10321, A176E/A330V/A35S/A73E/C25G/C350S/D138N/D33S/E299K/L171W/L180R/L218V/M285V/M309V/M331V/N104K/P208H/Q277E/Q291P/R243W/R38W/S101N/S123F/S140F/S297R/S48A/T329A/T363A/V319A/V327M); test: Competitive peptide binding assay, CIR-C0401; settings: HMy2.CIR-C0401 cells, reference Cy5-[…], class from inhibition at 5 and 15 μM, flow cytometry MFI; read-out: Binding affinity with HLA-C0401
Protocol: as §1

HLA-C0801 = HLA-C0801 (Homo sapiens, UniProt P10321, A176T/A330V/A97T/C350S/D114A/D138N/D33Y/E201K/E299G/L171W/L218V/M285V/M309V/M331V/P208H/Q277E/Q291P/R59Q/S123Y/S140F/S297R/S48A/T329A/T363A/V319A/V328M); test: Competitive peptide binding assay, CIR-C0801; settings: HMy2.CIR-C0801 cells, reference Cy5-[…], class from inhibition at 5 and 15 μM, flow cytometry MFI; read-out: Binding affinity with HLA-C0801
Protocol: as §1

[1] = HMy2.CIR-C0102 cells, reference Cy5-[…], class from inhibition at 5 and 15 μM, flow cytometry MFI, read-out: Binding affinity with HLA-C0102

SMILES	IC50 (HLA-C0102)	inhibition at 5 µM (HLA-C0102)	inhibition at 15 µM (HLA-C0102)	IC50 (HLA-C0702)	IC50 (HLA-C0302)	IC50 (HLA-C0602)	IC50 (HLA-C0304)	IC50 (HLA-C0102; [1])	IC50 (HLA-C0401)	IC50 (HLA-C0801)
CSCC[C@H](NC(=O)[C@H](CO)NC(=O)[C@H](Cc1ccccc1)NC(=O)[C@H](Cc1c[nH]cn1)NC(=O)[C@H](CCCCN)NC(=O)[C@H](CCCNC(=N)N)NC(=O)[C@H](CC(C)C)NC(=O)[C@H](Cc1ccc(O)cc1)NC(=O)[C@H](C)NC(=O)[C@@H](N)Cc1ccc(O)cc1)C(=O)O [Epitope M26] (H-YAYLRKHFSM-OH; N-terminus and C-terminus assumed)	> 15 µM	8.9%	33.9%	> 15 µM	5 to 15 µM	> 15 µM	5 to 15 µM	–	–	–
C[C@H](NC(=O)[C@H](CO)NC(=O)[C@H](C)NC(=O)[C@H](CO)NC(=O)[C@@H]1CCCN1C(=O)[C@H](C)NC(=O)[C@@H](N)Cc1ccccc1)C(=O)N[C@@H](Cc1ccccc1)C(=O)N[C@@H](Cc1ccccc1)C(=O)O [Epitope M16] (H-FAPSASAFF-OH; N-terminus and C-terminus assumed)	–	37%	81.4%	> 15 µM	< 5 µM	> 15 µM	–	5 to 15 µM	5 to 15 µM	–
C[C@@H](O)[C@H](NC(=O)[C@H](CCC(N)=O)NC(=O)[C@H](CC(=O)O)NC(=O)[C@H](Cc1c[nH]c2ccccc12)NC(=O)[C@H](Cc1ccc(O)cc1)NC(=O)[C@H](CCCCN)NC(=O)[C@H](Cc1ccccc1)NC(=O)[C@@H](N)Cc1ccc(O)cc1)C(=O)N[C@@H](Cc1ccc(O)cc1)C(=O)O [Epitope M122] (H-YFKYWDQTY-OH; N-terminus and C-terminus assumed)	–	–	–	5 to 15 µM	> 15 µM	> 15 µM	> 15 µM	> 15 µM	–	–
CC[C@H](C)[C@H](NC(=O)[C@H](CCCNC(=N)N)NC(=O)[C@H](CO)NC(=O)[C@H](CCSC)NC(=O)CNC(=O)[C@@H](N)Cc1ccccc1)C(=O)NCC(=O)N[C@@H](CCSC)C(=O)N[C@@H](CCC(=O)O)C(=O)N[C@H](C(=O)O)C(C)C [Epitope M19] (H-FGMSRIGMEV-OH; N-terminus and C-terminus assumed)	–	–	–	> 15 µM	–	< 5 µM	–	> 15 µM	–	> 15 µM
CC(C)C[C@H](NC(=O)[C@H](C)NC(=O)[C@H](C)NC(=O)CNC(=O)[C@H](C)NC(=O)CNC(=O)[C@H](Cc1ccccc1)NC(=O)[C@@H](NC(=O)[C@@H](N)Cc1c[nH]c2ccccc12)[C@@H](C)O)C(=O)O [Epitope M33, WTFGAGAAL] (H-WTFGAGAAL-OH; N-terminus and C-terminus assumed)	–	–	–	–	5 to 15 µM	–	> 15 µM	–	–	–
CC[C@H](C)[C@H](NC(=O)[C@H](C)NC(=O)[C@H](CC(C)C)NC(=O)[C@@H](NC(=O)[C@@H](N)C(C)C)[C@@H](C)O)C(=O)N[C@@H](CC(C)C)C(=O)N[C@H](C(=O)N[C@@H](C)C(=O)N[C@@H](CC(C)C)C(=O)O)[C@@H](C)O [Epitope M3, VTLAILTAL] (H-VTLAILTAL-OH; N-terminus and C-terminus assumed)	–	69.2%	87.4%	5 to 15 µM	–	> 15 µM	–	< 5 µM	< 5 µM	–
CC[C@H](C)[C@H](NC(=O)[C@H](CCC(N)=O)NC(=O)[C@H](CC(C)C)NC(=O)[C@H](C)NC(=O)[C@H](C)N)C(=O)N1CCC[C@H]1C(=O)N[C@@H](Cc1ccccc1)C(=O)N[C@@H](C)C(=O)N[C@@H](CCSC)C(=O)O [Epitope M66] (H-AALQIPFAM-OH; N-terminus and C-terminus assumed)	–	–	–	–	–	5 to 15 µM	< 5 µM	–	–	–
CSCC[C@H](NC(=O)[C@H](CO)NC(=O)[C@H](CCCNC(=N)N)NC(=O)[C@@H](NC(=O)[C@H](CCCNC(=N)N)NC(=O)[C@H](C)NC(=O)[C@H](Cc1ccccc1)NC(=O)[C@H](CC(C)C)NC(=O)[C@@H](N)CCCNC(=N)N)[C@@H](C)O)C(=O)O [Epitope M41] (H-RLFARTRSM-OH; N-terminus and C-terminus assumed)	> 15 µM	9.56%	35.7%	> 15 µM	–	–	–	–	–	5 to 15 µM
CC[C@H](C)[C@H](NC(=O)[C@@H](NC(=O)CNC(=O)[C@H](CC(N)=O)NC(=O)[C@H](CO)NC(=O)[C@H](CC(=O)O)NC(=O)[C@H](C)NC(=O)[C@@H](N)CCSC)[C@@H](C)O)C(=O)N[C@H](C(=O)N[C@H](C(=O)O)C(C)C)[C@@H](C)O [Epitope M48] (H-MADSNGTITV-OH; N-terminus and C-terminus assumed)	–	–	–	–	–	> 15 µM	5 to 15 µM	> 15 µM	–	–
CC(C)[C@H](NC(=O)CNC(=O)[C@H](CCCNC(=N)N)NC(=O)[C@@H](NC(=O)[C@H](Cc1ccccc1)NC(=O)[C@H](CO)NC(=O)[C@@H](N)CC(N)=O)[C@@H](C)O)C(=O)N[C@@H](Cc1ccc(O)cc1)C(=O)N[C@@H](Cc1ccc(O)cc1)C(=O)O [Epitope M129] (H-NSFTRGVYY-OH; N-terminus and C-terminus assumed)	–	11.3%	34.3%	–	> 15 µM	–	–	> 15 µM	–	–
CC[C@H](C)[C@H](NC(=O)[C@H](Cc1ccc(O)cc1)NC(=O)[C@H](CC(C)C)NC(=O)[C@H](Cc1ccccc1)NC(=O)[C@H](CCCNC(=N)N)NC(=O)[C@H](CC(N)=O)NC(=O)[C@H](CCCNC(=N)N)NC(=O)[C@H](CC(N)=O)NC(=O)[C@H](C)NC(=O)[C@@H](N)Cc1ccc(O)cc1)C(=O)O [Epitope M73] (H-YANRNRFLYI-OH; N-terminus and C-terminus assumed)	–	23.5%	47.8%	–	5 to 15 µM	< 5 µM	–	> 15 µM	–	–
CC[C@H](C)[C@H](NC(=O)[C@H](C)NC(=O)CNC(=O)[C@@H](NC(=O)[C@H](Cc1ccc(O)cc1)NC(=O)[C@@H](NC(=O)[C@@H](N)CC(C)C)[C@@H](C)O)[C@@H](C)O)C(=O)N[C@@H](CCCCN)C(=O)N[C@@H](CC(C)C)C(=O)O [Epitope M15] (H-LTYTGAIKL-OH; N-terminus and C-terminus assumed)	–	–	–	> 15 µM	> 15 µM	< 5 µM	–	–	–	< 5 µM
CC(C)[C@H](NC(=O)[C@H](CC(N)=O)NC(=O)[C@H](Cc1ccc(O)cc1)NC(=O)[C@H](C)NC(=O)[C@@H](N)CCCCN)C(=O)N[C@H](C(=O)N[C@@H](CCC(N)=O)C(=O)N[C@@H](C)C(=O)N[C@@H](Cc1ccccc1)C(=O)O)[C@@H](C)O [Epitope M11] (H-KAYNVTQAF-OH)	–	–	–	5 to 15 µM	> 15 µM	< 5 µM	–	5 to 15 µM	> 15 µM	–
CC(C)C[C@H](NC(=O)[C@H](C)NC(=O)[C@@H](NC(=O)[C@H](Cc1ccccc1)NC(=O)[C@H](Cc1c[nH]c2ccccc12)NC(=O)[C@H](CO)NC(=O)[C@H](C)NC(=O)[C@@H](NC(=O)[C@@H](N)CC(N)=O)[C@@H](C)O)[C@@H](C)O)C(=O)O [Epitope M56, NTASWFTAL] (H-NTASWFTAL-OH; N-terminus and C-terminus assumed)	–	17.3%	46.5%	–	–	> 15 µM	–	> 15 µM	–	5 to 15 µM
CC[C@H](C)[C@H](NC(=O)[C@H](CCCNC(=N)N)NC(=O)[C@H](CC(C)C)NC(=O)[C@H](CCSC)NC(=O)[C@H](CC(N)=O)NC(=O)[C@@H]1CCCN1C(=O)[C@H](CCSC)NC(=O)[C@H](C)NC(=O)[C@@H](N)CCCNC(=N)N)C(=O)O [Epitope M30] (H-RAMPNMLRI-OH; N-terminus and C-terminus assumed)	–	–	–	> 15 µM	–	< 5 µM	–	5 to 15 µM	> 15 µM	> 15 µM
